Measurements taken from publication PMC10468765, “Substituted 1,2,4-Triazoles as Novel and Selective Inhibitors of Leukotriene Biosynthesis Targeting 5-Lipoxygenase-Activating Protein” (ACS Omega, 2023).

These compounds were tested on 5-lipoxygenase-activating protein (FLAP) (assay: cells). Conditions: Neutrophil; 2.5 uM A23187.
Design: species or system human neutrophils; Inhibition of 5-LO product formation (LTB4, its trans isomers, 5-H(p)ETE) in A23187-stimulated human neutrophils, FLAP-dependent assay
`Clc1ccc(-n2c(SCc3nc4ccccc4s3)nnc2-c2cccs2)cc1` [6d] gave an IC50 of 1360 ± 270 nM.
`COc1ccc(-n2c(SCc3ccc4ccccc4n3)nnc2-c2cccs2)cc1` [6j] was tested, and the IC50 was 3690 ± 1020 nM.
`COc1ccc(-n2c(SCc3nc4ccccc4s3)nnc2-c2ccccc2)cc1` [6q] gave an IC50 of 1280 ± 190 nM.
Work on `COc1ccc(-n2c(OCc3nc4ccccc4s3)nnc2-c2cccs2)cc1` [6n] yielded an IC50 of 3010 ± 840 nM.
Compound `COc1ccc(-n2c(OCc3ccc4ccccc4n3)nnc2-c2cccs2)cc1` [6o] has an IC50 of 6340 ± 790 nM.
Work on `COc1cccc(-n2c(SCc3ccc4ccccc4n3)nnc2-c2cccs2)c1` [6k] yielded an IC50 of 4170 ± 270 nM.
For `N#Cc1ccc(-c2nnc(SCc3nc4ccccc4s3)n2-c2ccccc2)cc1` [6z], the IC50 was 1930 ± 370 nM.
With `COc1ccc(-n2c(SCc3nc4ccccc4s3)nnc2-c2ccc(C#N)cc2)cc1` [6s] the IC50 was 1920 ± 580 nM.
`COc1ccc(-n2c(SCc3ccc(C(F)(F)F)o3)nnc2-c2cccs2)cc1` [6l] gave an IC50 of 1420 ± 310 nM.
`COc1cccc(-n2c(SCc3nc4ccccc4s3)nnc2-c2cccs2)c1` [6c] gave an IC50 of 1580 ± 590 nM.
For `COc1ccc(-n2c(SCc3nc4ccccc4s3)nnc2-c2cccs2)cc1` [6a], the IC50 was 2180 ± 650 nM.
